Measurements as given in patent US20180338918A1, “TEMSIROLIMUS LIPOSOME AND PREPARATION METHOD THEREOF” (JIANGSU TASLY DIYI PHARMACEUTICAL CO., LTD., priority 2017, published 2018).

Legend:
[1] = Sulfobutyl ether-β-cyclodextrin inclusion of temsirolimus, appearance of the solution; assay type: physicochemical; conditions: 1 mg/mL temsirolimus; application amount of sulfobutyl ether-β-cyclodextrin 50%
Experimental: The druggabilities of sulfobutyl ether-β-cyclodextrin inclusion complex, liposome, and fat emulsion were investigated. The drug loading was fixed at 1 mg/ml for parallel comparisons. The main study protocol and results were summarized as follows:
Formula amount of sulfobutyl ether-β-cyclodextrin was weighed, and dissolved by adding quantum satis water for injection, and setting the volume thereof to 100 mL; formula amount of temsirolimus was weighed, added into the aqueous solution of sulfobutyl ether-β-cyclodextrin, and stirred them at room temperature for 2 h.
Formula amount of sulfobutyl ether-β-cyclodextrin was weighed, dissolved by adding quantum satis water for injection to give an aqueous phase; formula amounts of temsirolimus and organic vehicle (anhydrous ethanol, or propanediol, or PEG4000) were weighed, dissolved by water-bath ultrasound to give an organic phase; the organic phase was poured into the aqueous phase with stirring, and mixed uniformly, and setting the volume thereof to full volume with water for injection, and thus the formulations were obtained.

[2] = background statement; cited from earlier work
[3] = Solubility of temsirolimus in common oils for injection (medium chain oil, soybean oil); assay type: physicochemical; conditions: for Dissolution state: 30 min
Description: Investigation of the solubility of temsirolimus in common oils for injection (medium chain oil, soybean oil)

mice = conditions: injected via tail vein of mice, compared with Tween 80; cited from earlier work

Row | Inclusion of temsirolimus by sulfobutyl ether-β-cyclodextrin [1] | Dissolution state ([3]; Medium chain oil, 10 mg/g, 60° C.) | Dissolution state ([3]; Medium chain oil, 10 mg/g, 70° C.) | Dissolution state ([3]; Medium chain oil, 10 mg/g, 80° C.) | Dissolution state ([3]; Medium chain oil, 20 mg/g, 60° C.) | Dissolution state ([3]; Medium chain oil, 20 mg/g, 70° C.) | Dissolution state ([3]; Medium chain oil, 20 mg/g, 80° C.) | Dissolution state ([3]; Medium chain oil, 30 mg/g, 60° C.) | Dissolution state ([3]; Medium chain oil, 30 mg/g, 70° C.) | Dissolution state ([3]; Medium chain oil, 30 mg/g, 80° C.) | Dissolution state ([3]; Medium chain oil, 40 mg/g, 60° C.) | Dissolution state ([3]; Medium chain oil, 40 mg/g, 70° C.) | Dissolution state ([3]; Medium chain oil, 40 mg/g, 80° C.) | Dissolution state ([3]; Soybean oil, 10 mg/g, 60° C.) | Dissolution state ([3]; Soybean oil, 10 mg/g, 70° C.) | Dissolution state ([3]; Soybean oil, 10 mg/g, 80° C.) | Solubilities in the medium chain oil and soybean oil ([3]; summary in words) | Molecule | Solubility in water [2] | Acute toxicity (mice)
1 | cannot be included | Severe | Severe | Severe | Severe | Severe | Severe | Severe | Severe | Severe | Severe | Severe | Severe | Severe | Severe | Severe | poor | CO[C@H]1C[C@@H]2CC[C@@H](C)[C@@](O)(O2)C(=O)C(=O)N2CCCC[C@H]2C(=O)O[C@H]([C@H](C)C[C@@H]2CC[C@@H](OC(=O)C(C)(CO)CO)[C@H](OC)C2)CC(=O)[C@H](C)/C=C(\C)[C@@H](O)[C@@H](OC)C(=O)[C@H](C)C[C@H](C)/C=C/C=C/C=C/1C [temsirolimus, 42-bis(hydroxymethyl) propionate of sirolimus] | almost insoluble in water | –
2 | – | – | – | – | – | – | – | – | – | – | – | – | – | – | – | – | – | polyethylene glycol stearate 15 | – | great, even greater than that of Tween 80
